# Assay results reported in patent EP4772178A1, “ANTI-TUMOR USE OF ACT001 COMPOSITION” (Accendatech Co. Ltd., priority 2023, dated 2025).
# Values joined by “and” are separate entries in the source; they are usually repeats but may differ in a detail not shown here. Equal values may be shown once.
# Legend:
# [1] = system: peripheral blood suppressive Treg lymphocytes; test: ACT001-CN-002 Phase II clinical trial, exploratory endpoint: peripheral blood Treg ratio; assay type: in vivo, patients; settings: one line per patient; for Peripheral blood Treg ratio (before treatment): first figure of the cell; for Peripheral blood Treg ratio (after treatment): second figure of the cell
# [2] = ACT001-CN-002 Phase II clinical trial, safety assessment (peripheral blood lymphopenia)
# Experimental: GBM patients who relapsed after standard treatment were randomly assigned to three cohorts of an ACT001-CN-002 Phase II clinical trial: • Cohort A: ACT001 monotherapy (400 mg, BID); • Cohort B: ACT001 and TMZ (temozolomide) were administered in combination at doses of 400mg, BID (ACT001) and 200 mg/m^2/day (TMZ, administered on days one to five of each 28-day course of treatment), respectively; • Cohort C: CCNU monotherapy (lomustine, 100-130 mg/m^2/dose, once every six weeks, 4 doses at most) or TMZ monotherapy (the dosage level and the route of administration were the same as those for cohort B).
# The trial endpoints were post-dose progression-free survival (iRANO criteria), one-year survival rate, and safety assessment: the number of times each safety event occurred (e.g., the incidence of peripheral blood lymphopenia). The exploratory endpoints included changes in the peripheral blood suppressive Treg lymphocyte ratio.
# GBM = test: ACT001-CN-002 Phase II clinical trial, efficacy (best response, iRANO criteria); assay type: in vivo, patients; settings: one line per patient; duration of stable disease
SMILES,Peripheral blood Treg ratio (before treatment) [1],Peripheral blood Treg ratio (after treatment) [1],Grade 3 or higher lymphopenia ([2]; one line per patient),Best response time (months) (GBM),"Grade 3 or higher lymphopenia ([2]; human, in vivo)"
"O=NN(CCCl)C(=O)NC1CCCCC1 [CCNU, lomustine]",6.6 and 5.6 and 11.4,12.4 and 7.3 and 9.5,No (2×) and Yes,6 months,–
CC1=C2CC[C@@](C)(O)[C@@H]2[C@H]2OC(=O)[C@@H](CN(C)C)[C@@H]2CC1 [ACT001],3.2 and 8.7 and 5.9 and 6.9 and 2.4,8.4 and 6.5 and 6.7 and 1.8 and 9.4,–,9 months and 4 months,No
"Cn1nnc2c(C(N)=O)ncn2c1=O [TMZ, temozolomide]",4.3 and 7.1,14.3 and 7.5,–,7 months and 4 months,–
